From BindingDB's records for doi:10.1111/j.1432-1033.1976.tb10435.x (Gesellschaft Fur Molekularbiolische Forschung Mbh, 1976)

biological target: Isoleucine--tRNA ligase (Escherichia coli (strain K12), UniProt P00956); assay: Competitive Ligand Binding Assay; settings: pH 7.5; 20 °C
Source text: Utilizing an analytical ultracentrifuge, the binding constants of various amino acids and isoleucine analogues to IleRS were estimated from their competition with radioactively labeled L-isoleucine.

Chain of Isoleucine--tRNA ligase (P00956 whole entry): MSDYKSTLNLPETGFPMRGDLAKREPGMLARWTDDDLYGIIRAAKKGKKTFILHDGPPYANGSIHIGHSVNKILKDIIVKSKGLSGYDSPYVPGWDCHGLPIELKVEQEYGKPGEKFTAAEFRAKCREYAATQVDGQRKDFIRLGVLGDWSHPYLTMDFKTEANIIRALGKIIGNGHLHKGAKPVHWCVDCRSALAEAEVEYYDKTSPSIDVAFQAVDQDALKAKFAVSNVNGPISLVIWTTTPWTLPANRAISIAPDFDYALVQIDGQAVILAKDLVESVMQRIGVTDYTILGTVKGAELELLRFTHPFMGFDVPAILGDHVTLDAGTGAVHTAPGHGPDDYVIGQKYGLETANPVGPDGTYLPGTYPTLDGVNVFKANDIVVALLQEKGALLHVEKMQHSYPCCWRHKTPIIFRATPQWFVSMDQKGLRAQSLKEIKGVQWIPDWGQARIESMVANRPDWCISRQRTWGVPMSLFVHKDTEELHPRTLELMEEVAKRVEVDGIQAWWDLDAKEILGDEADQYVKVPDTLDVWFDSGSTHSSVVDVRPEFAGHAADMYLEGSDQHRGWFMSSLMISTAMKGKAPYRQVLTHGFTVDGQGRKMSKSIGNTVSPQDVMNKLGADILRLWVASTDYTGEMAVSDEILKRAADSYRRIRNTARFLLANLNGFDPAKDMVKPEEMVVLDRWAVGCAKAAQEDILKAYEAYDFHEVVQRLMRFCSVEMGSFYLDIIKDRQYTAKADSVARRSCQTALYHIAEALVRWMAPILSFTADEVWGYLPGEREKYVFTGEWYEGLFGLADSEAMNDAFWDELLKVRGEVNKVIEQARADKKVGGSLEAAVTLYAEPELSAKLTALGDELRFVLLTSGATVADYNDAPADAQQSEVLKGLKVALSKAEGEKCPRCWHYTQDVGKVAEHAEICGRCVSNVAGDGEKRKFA

| Ki | SMILES |
| --- | --- |
| 5 mM | CCC[C@H](CC)C(N)C(=O)O (stereo partly drawn) [(3S)-2-amino-3-ethylhexanoic acid] |
| 16.7 mM | CCCC[C@@H](C)C(N)C(=O)O (stereo partly drawn) [(3R)-2-amino-3-methylheptanoic acid] |
| 3.33 mM | CC(C)[C@@H](C)C(N)C(=O)O (stereo partly drawn) [(3R)-2-amino-3,4-dimethylpentanoic acid] |
| 1.67 mM | CCC[C@@H](C)C(N)C(=O)O (stereo partly drawn) [(3R)-2-amino-3-methylhexanoic acid] |
| 2.5 mM | CCCC[C@H](C)C(N)C(=O)O (stereo partly drawn) [(3S)-2-amino-3-methylheptanoic acid] |
| 2 mM | CC[C@H](C)C[C@H](N)C(=O)O [(2S,4S)-2-amino-4-methylhexanoic acid] |
| 5 mM | CCC[C@@H](CC)C(N)C(=O)O (mixture of isomers) [(3R)-2-amino-3-ethylhexanoic acid] |
| 0.0588 mM | CCC[C@H](C)C(N)C(=O)O (stereo partly drawn) [(3S)-2-amino-3-methylhexanoic acid] |

The next lines start with the compound.

| SMILES | Ki |
| --- | --- |
| CC(C)(C)CC(N)C(=O)O (racemic) [2-amino-4,4-dimethylpentanoic acid] | 12.5 mM |
| CC(C)[C@@H](C)[C@H](N)C(=O)O [(2S,3R)-2-amino-3,4-dimethylpentanoic acid] | 5 mM |
| CC(C)CCC(N)C(=O)O (racemic) [2-amino-5-methylhexanoic acid] | 3.33 mM |
| CCCCC[C@H](N)C(=O)O [(2S)-2-aminoheptanoic acid] | 16.7 mM |
| CC(C)[C@H](N)CO [(2S)-2-amino-3-methylbutan-1-ol] | 14.3 mM |
| CCC(CC)C(N)C(=O)O (stereo unspecified) [2-amino-3-ethylpentanoic acid] | 0.53 mM |
| CCC(C)[C@H](N)CO (stereo partly drawn) [(2S)-2-amino-3-methylpentan-1-ol] | 8.33 mM |
| CCC(CC)[C@H](N)C(=O)O [(2S)-2-amino-3-ethylpentanoic acid] | 0.56 mM |
| CC(C)[C@H](C)[C@H](N)C(=O)O [(2S,3S)-2-amino-3,4-dimethylpentanoic acid] | 0.0455 mM |
| CC(C)CC[C@H](N)C(=O)O [(2S)-2-amino-5-methylhexanoic acid] | 2.5 mM |
| CCC[C@H](C)[C@H](N)C(=O)O [(2S,3S)-2-amino-3-methylhexanoic acid] | 0.05 mM |
| CCC(C)(C)[C@H](N)C(=O)O (racemic) [2-amino-3,3-dimethylpentanoic acid] | 1.25 mM |
| CC(C)(C)C[C@H](N)C(=O)O [(2S)-2-amino-4,4-dimethylpentanoic acid] | 12.5 mM |
